Test results: a melting point compilation (Tetko et al.; mined from patent text by program, amines drawn as free bases though some values may be those of a salt)

SMILES	melting point [°C]
CN(C)c1ccc(NC(=O)N2CCC(Nc3nccc(-c4c(-c5ccc(F)cc5)nc5occn45)n3)CC2)cc1	225 to 227
CC(C)(C)OC(=O)N1CCC(COc2ccc(C=O)cc2)CC1	116 to 117
COC(=O)c1ccccc1-c1cc(F)cc(OCc2ccc3c(-c4ccoc4)cc(C#N)nc3c2)c1	152 to 154
COc1c(O)c(CN2CCN(C)CC2)c(O)c2c(=O)cc(-c3ccccc3)oc12	179
O=C(c1ccc(F)cc1)N1CCC[C@H](c2nc(-c3ccc[nH]3)no2)C1	130 to 135
COC(=O)c1ccc(OC(Cc2ccccc2)C(=O)OC)cc1 (stereo unspecified)	96 to 98
COc1cc2ncc(C#N)c(Nc3cccc(Oc4ccccc4)c3)c2cc1OC	253 to 254
CN1C2CCC1CC(NC(=O)c1cccc3oc(-c4ccccc4)nc13)C2 (stereo unspecified)	149 to 151
COc1cc(Br)cc(/C=C/C(=O)/C=C/c2cc(Br)cc(OC)c2)c1	181 to 183
COC(=O)C1=CC(C(=O)OC)NC(=O)N1 (stereo unspecified)	177 to 179
COC(=O)Nc1ccc(C(=O)N(C)C)c(S(N)(=O)=O)c1	75 to 77
CCOC(=O)C1CC(C)CCN1C(=O)c1ccc(Cl)c(C2(C)C(=O)N(Cc3ccc(OC)cc3OC)c3ccc(Cl)cc32)c1 (stereo unspecified)	106
COc1ccc2ccc(N3Cc4ccccc4C3OCC(=O)O)nc2n1 (stereo unspecified)	190
COc1ccc(S(=O)(=O)C(CCCCc2ccccc2)CC(=O)NO)cc1OC (stereo unspecified)	157 to 159
CCOC(=O)c1ccc(OCc2nc(C)c(C)nc2C)cc1	75 to 75.7
CN1CCN(Cc2c(Cl)ccc(C(=O)O)c2Cl)C1=O	221
COC(=O)c1cc(Cl)c(Oc2ccc(OC)c(C(=O)c3ccc(F)cc3)c2)c(Cl)c1	112 to 115
CCCc1c(OCCCC#CC(=O)NCCCCc2cccnc2)ccc(C(C)=O)c1O	84 to 86
CCCc1c(OCCCCCCc2cccc(OCCCCCCC(=O)O)c2CCC(=O)O)ccc2c1OCCC2=O	91 to 93
CCN(CC)CCN(CC)C(=O)c1ccc(Nc2ccnc3cc(Cl)ccc23)cc1	166
CCCCCCCCCCCCC(=O)Nc1ccn(C2OC(CO)C(O)C2O)c(=O)n1 (stereo unspecified)	143 to 146
CCc1ccc(-n2nc(Cl)cc2-c2ccc(S(C)(=O)=O)cc2)cc1[N+](=O)[O-]	134 to 135
CCCc1nc(C)n2nc(S(=O)(=O)Cl)nc2c1Cc1ccc(-c2ccccc2C#N)cc1	141
Cc1c(Br)sc2cc(C(=O)Cn3ccnc3)ccc12	184 to 186

SMILES	melting point [°C]
CC(=O)CNC(=O)c1ccccc1C	65 to 66
CCN1CCC(Cc2ccc(Cl)nc2)C1=C[N+](=O)[O-] (stereo unspecified)	129 to 131
CCOC(=O)C1=C(C)N=C(N)C(CC)(C(=O)OCC)C1c1cccc([N+](=O)[O-])c1 (stereo unspecified)	122 to 123
COC(=O)CN(C(=O)OC)C1CN(C(=O)Nc2ccc(C(F)(F)F)cc2)N=C1c1ccc(Cl)cc1 (stereo unspecified)	198 to 200
CCCCOC(=O)C(COC(C)(C)C)NC(=O)c1ccc2c(Cl)cnc(NC(=N)N)c2c1 (racemic)	215 to 219
CCN(CC)C(=O)c1ccc2ccccc2c1-c1ccc(OC)cc1	114 to 116
CC(C)OC(=O)CS(=O)(=O)C=C1SC=CS1	127 to 128
CN1C(=O)CC(c2ccc(-c3ccc(F)cc3)cc2)C1C(O)c1ccc(-c2ccccc2)s1 (stereo unspecified)	191 to 193
CC(=O)N1CCCC(C2=C(C#N)C(c3cccc4nonc34)c3c[nH]nc3N2)C1 (stereo unspecified)	219
O=C(Nc1ccc(-n2nc(C(F)(F)F)cc2C(F)(F)F)cc1)C1=CCCCC1	146 to 148
NOCc1ccn(C(c2ccccc2)(c2ccccc2)c2ccccc2)n1	105 to 110
COc1cc(Nc2c(C#N)cnc3cc(-c4ccc(CN5CCOCC5)nc4)ccc23)c(Cl)cc1Cl	195 to 197
CC[C@H](C)Nc1cc(C(=O)OC)cc(NS(C)(=O)=O)n1	119 to 123
O=C1CC(=O)C2CCC1C2	129 to 130
CCOC(=O)c1nn(C)c(OC(F)F)c1CO	90 to 91
CC(C)[C@H](C[C@H](O)[C@H](C)NC(=O)OC(C)(C)C)C(=O)NCCN	55 to 62
COc1ccc2c(OCCN3CCOCC3)c(-c3ccccc3)c(=O)oc2c1	95 to 96
OC(COc1ccc(F)cc1)CN1CCC(=C2c3ccc(F)cc3CCn3ncnc32)CC1 (stereo unspecified)	134
Cc1ccc(C(=O)NC(=O)Nc2ccc3c(c2)NC(=O)/C3=C\c2ccc[nH]2)cc1	276 to 281
CCc1cc(C(C)=O)c(O)cc1OCCCCCC(C)(C)C(N)=O	73 to 74
Cc1cc(C(C)(C)c2ccc(O)cc2)ccc1O	112 to 113
CCOC(=O)N1CCC(NC(=S)Nc2cccnc2NCc2ccco2)CC1	133
CCOC(=O)[C@@H](O)[C@@H]1OC(=O)c2cc(OC)c(OCc3ccccc3)cc21	138 to 140
O=C1CC2CC(n3c(=O)[nH]c4ccccc43)CC2C1 (stereo unspecified)	246 to 248

SMILES	melting point [°C]
CCOC(=O)c1c(C(F)(F)F)nc(OCC)c(C(=O)OC)c1OCC	46 to 48
O=C(Cc1ccsc1)N1C(=O)OC[C@@H]1Cc1ccccc1	80 to 81
CCC(c1ccc(Br)cc1)N(O)C(N)=O (stereo unspecified)	139 to 141
c1ccc(-c2[nH]c3cc4c(cc3c2-c2ccccc2)OCO4)cc1	187 to 188
COc1cccc(NC(=O)NC2N=C(c3ccc(C)cc3)c3ccccc3N(C)C2=O)c1 (stereo unspecified)	240 to 242
CCOC(=O)C(=CN(C)C)C(=O)c1cc2cc(F)c(F)c(F)c2nc1Cl	118
N#CC(O)CC12CCC(c3ccccc31)c1ccccc12 (stereo unspecified)	139 to 141
CCCc1c([C@@H]2C[C@H]2c2ccccc2)oc2ccc(C(=O)O)cc2c1=O (relative stereo)	195 to 196
CCN(CC)CCNC(=O)c1cccc2c(=O)c(C)c(-c3cccc(Cl)c3)oc12	116 to 117
CCCCCCCOc1ccc(COc2ccc3c(c2)CC(CC(=O)O)C3OC)cc1 (stereo unspecified)	80 to 82
O=C(O)C1=Cc2cc(OCc3ccccc3)c(OCc3ccccc3)cc2CCC1	180 to 181
CCN(CC)CC(=O)N1c2ccccc2N(C)S(=O)(=O)c2ccccc21	161 to 162
Cc1c2cccc(-c3cccc(C(=O)NCCO)c3)c2nn1Cc1cccc(C(F)(F)F)c1	142 to 143
CCCCCC(=O)c1ccc(C(=O)Nc2ccc3cc(CN4CCCC4)cnc3c2C)cc1	175
CCOCc1nc2c(N)nc3cc(OCCN4CCOCC4)ccc3c2n1CC(C)(C)O	161 to 163
COCCNC(=O)c1cccc(-c2cccc3oc(Cc4ccc(F)c(F)c4)cc23)c1	83 to 84
O=S(CCCCCOc1ccc(C2=C(c3ccccc3)CCCc3cc(O)ccc32)cc1)Cc1cccs1 (stereo unspecified)	174 to 177
Nc1ccc(OC2CCN(C(=O)OCc3ccccc3)C2)cc1CS(=O)(=O)c1cccc2ccccc12 (stereo unspecified)	162 to 164
COc1ccc(N2CC(CN3CCC(O)(c4ccc(Cl)cc4)CC3)OC2=O)cc1 (stereo unspecified)	143 to 144
O=C(c1cccs1)c1cc2c(c(Cl)c1Cl)OC(CO)C2 (stereo unspecified)	65 to 68
CCc1cc(-c2ccc(Cl)cc2)nc2c(I)cnn12	150 to 152
CCCC[C@H]1CC[C@H](OC(=O)c2cc(Sc3ccc(C)cc3)c3c(c2N)C(=O)c2ccccc2C3=O)CC1	176 to 177
NC(=O)Cc1ccc2ccn(C3CCN(CCc4ccc(F)cc4F)CC3)c2c1	157 to 158
Cn1c(=O)c2c(Cl)cccc2n2cnc(C(=O)n3ccnc3)c12	242 to 243

SMILES	melting point [°C]
COc1cccc2c1nc(C)c1ccn(-c3ccccc3C)c12	143 to 145
Nc1ccc(C(c2ccc(N)c(N)c2)(C(F)(F)F)C(F)(F)F)cc1N	218 to 220
CCOC(=O)c1cnn(-c2ccc(OC)c(C#N)c2)c1N	195 to 196
N#Cc1cccc(CCn2ncc3c(=O)n(-c4ccccc4)c4ncccc4c32)c1	220 to 224
COC(=O)c1sccc1C(C)=O	59 to 60
O=C(Cc1ccc(Cl)cc1)N1CCCCC1	85 to 85.5
COc1ccc2c(c1)-c1c(C#N)c(N3CCCCC3)c3c(c1C2)-c1ccccc1C3	216 to 218
CN(C)c1sc2cc(OCc3ccccc3)ccc2c1C(=O)c1ccc(F)c(C(F)(F)F)c1	164 to 167
COC(=O)c1sc2cccc(C#N)c2c1N	169 to 170
O=C(O)/C=C/c1ccc(C(c2cc(F)ccc2F)S(=O)(=O)c2ccc(Cl)cc2)nc1 (stereo unspecified)	236 to 238
CCCCNC(=N)NC(=O)NCCCC	82 to 94
O=[N+]([O-])C(F)(CCc1nnc(C(F)(F)C(F)(F)F)o1)[N+](=O)[O-]	3 to 5
O=C(O)CN(Cc1ccc(OCc2ccc(F)cc2)cc1)C(=O)c1cn2cc(-c3ccc(Cl)cc3)ccc2n1	206
COc1ccc(-c2cc(C(F)(F)F)n3ncc(C(=O)Nc4cccc(S(=O)(=O)N5CCOCC5)c4)c3n2)cc1	203
CC(Oc1ccc(Oc2cnc3cc(Cl)ccc3n2)cc1)C(=O)Nc1ccc(OC(F)(F)F)cc1 (stereo unspecified)	156 to 158
CS(=O)(=O)c1cnc(Cl)c(Cl)c1	129 to 130
O=NSC1(CCOC(=O)CCC(=O)O)C2CC3CC(C2)CC1C3 (stereo unspecified)	63 to 70
COc1ccc2c(n1)c(C=C[N+](=O)[O-])c1n2CCCO1	248 to 249
CCCN(CCC)[C@H]1Cc2c[nH]c3ccc(-c4nc(-c5ccccc5)no4)c(c23)C1	154 to 155
COCCC1CCN(c2ccc(C#N)c3sccc23)C1 (stereo unspecified)	88 to 89
CC(C)c1nn(-c2ccc(Cl)cn2)cc1CCCOc1ccccc1CC(=O)O	141 to 142
CC=CC(=O)c1oc2c(-c3ccc(F)cc3)c(-c3ccc(S(C)(=O)=O)cc3)nn2c1C	197 to 199
COc1cc(OC)nc(NC(=O)NS(=O)(=O)c2c3ccccc3nn2C)n1	199 to 202
CC(=O)Nc1ccc(C(=O)O)c2c1OCCO2	233
